Laboratory results reported in patent publication US11401278B2, “Macrocyclic indole derivatives” (The Broad Institute, Inc., priority 2017, dated 2022).
Where a name gives a salt, the structure may show the parent alone.

Tests used:
SNU-16 = assay: Antiproliferation assay (Assay 7), SNU-16; assay type: cell-based; settings: CellTiter-Glo, 72 hours, median, read-out: Antiproli SNU-16 [M] median IC50
Method: (§1) Assessment of the Anti-Proliferative Effect of Compounds in Different Cell Lines
(§2) The impact of compounds on the proliferation of different cell lines was assessed using the CellTiter-Glo® Luminescent Cell Viability reagent from Promega (G7573).
(§3) In parallel, cells were plated in a reference (day 0) plate for time zero determination.
(§4) Rim wells were excluded. The cells were incubated for 72 hours in a humidified incubator at 37° C. The day 0 plate was measured by adding 30 μL/well of CTG solution (CellTiter-Glo® Luminescent Cell Viability reagent, Promega G7573) to time zero wells in the reference plate followed by a 10 minutes incubation and luminescence reading at 0.1 ms. using the PHERAstar FS microplate reader (BMG Labtech).
(§5) After 72 hours incubation, the treated plates were measured in the same way as the day 0 plate mentioned above.

DM-S114 = assay: Antiproliferation assay (Assay 7), DM-S114; assay type: cell-based; settings: CellTiter-Glo, 72 hours, median, read-out: Antiproli DM-S114 [M] median IC50
Method: as §1, §2, §3, §4, §5

SK-MEL-2 = assay: Antiproliferation assay (Assay 7), SK-MEL-2; assay type: cell-based; settings: CellTiter-Glo, 72 hours, median, read-out: Antiproli SK-MEL-2 [M] median IC50
Method: as §1, §2, §3, §4, §5

A-431 = assay: Antiproliferation assay (Assay 7), A-431; assay type: cell-based; settings: CellTiter-Glo, 72 hours, median, read-out: Antiproli A-431 [M] median IC50
Method: as §1, §2, §3, §4, §5

SUDHL5 [1] = assay: Induction of cytotoxicity (Assay 6), SUDHL5; settings: read-out: Cytotox SUDHL5 [M] (median) IC50, CellTiter-Glo, 5 hours, SUDHL5
SUDHL10 [2] = assay: Induction of caspase-3/7 activity (Assay 4), SUDHL10; assay type: cell-based; settings: caspase-3/7 induction, 3 hours, median
How it was run: (§6)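 Caspase-3/7 activity measured by Caspase-Glo 3/7 luminescence in DLBCL cells after 3 h compound treatment at 37 °C. Medium-only background subtracted. EC50 fitted with C0 fixed at 1 and top set to the reference compound's plateau/max induction.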

MCL-1 = MCL-1 (Homo sapiens (Human), UniProt Q07820, K194A/K197A/R201A); assay: Protein-protein interaction assay MCL-1/Noxa BH3 peptide (MCL-1 assay, TR-FRET); assay type: binding; settings: MBP-MCL-1 / Noxa BH3 peptide, median
Chain of MCL-1 (Q07820 whole entry K194A/K197A/R201A, looked up, the tested form may be a part): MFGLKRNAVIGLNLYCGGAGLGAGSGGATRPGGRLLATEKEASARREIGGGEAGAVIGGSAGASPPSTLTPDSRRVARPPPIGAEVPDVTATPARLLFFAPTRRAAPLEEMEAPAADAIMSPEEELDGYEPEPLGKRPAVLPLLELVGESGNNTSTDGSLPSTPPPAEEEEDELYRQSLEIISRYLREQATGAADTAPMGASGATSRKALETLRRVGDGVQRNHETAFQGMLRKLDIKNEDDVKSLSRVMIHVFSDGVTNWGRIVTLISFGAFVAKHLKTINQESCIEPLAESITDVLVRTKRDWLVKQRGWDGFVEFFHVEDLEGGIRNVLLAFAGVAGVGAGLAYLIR
How it was run: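 MBP-fused MCL-1 (aa 173-329, 1 nM) was pre-incubated with compound for 10 min at 22° C, then biotinylated Noxa BH3 peptide (1 nM) was added with anti-MBP-Eu cryptate and streptavidin-XL665. Incubation was 1 h at 22° C, then overnight at 4° C, in Tris pH 7 buffer. The 665/620 nm ratio over 11 concentrations (0.1 nM-20 μM) gave IC50 by 4-parameter fit.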

SUDHL5 [3] = assay: Antiproliferation assay (Assay 7), SUDHL5; assay type: cell-based; settings: CellTiter-Glo, 72 hours, median, read-out: Antiproli SUDHL5 [M] (median) IC50
How it was run: (§7)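 Anti-proliferative effect is determined from CellTiter-Glo signal after a 72-hour incubation at 37° C, with a time-zero reference plate measured in parallel.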

PA-1 = assay: Antiproliferation assay (Assay 7), PA-1; assay type: cell-based; settings: CellTiter-Glo, 72 hours, median, read-out: Antiproli PA-1 [M] median IC50
Method: as §1, §2, §3, §4, §5

SUDHL10 [4] = assay: Induction of cytotoxicity (Assay 6), SUDHL10; settings: read-out: Cytotox SUDHL10 [M] (median) IC50, CellTiter-Glo, 5 hours, SUDHL10
HMC-1-8 = assay: Antiproliferation assay (Assay 7), HMC-1-8; assay type: cell-based; settings: CellTiter-Glo, 72 hours, several values per example, read-out: Antiproli HMC-1-8 [M] IC50
How it was run: as §7

SUDHL5 [5] = assay: Induction of caspase-3/7 activity (Assay 4), SUDHL5; assay type: cell-based; settings: caspase-3/7 induction, 3 hours, median
How it was run: as §6

Work on `CCc1c2c(nn1C)C(CCN1CCOCC1)N(C)S(=O)(=O)CCCn1c(C(=O)O)c(CCCOc3cccc4cc(F)ccc34)c3ccc(Cl)c-2c31` (single isomer, unassigned; enantiomer 1) [Example 75, 4-chloro-3-ethyl-7-{3-[(6-fluoronaphthalen-1-yl)oxy]propyl}-2,14-dimethyl-15-[2-(morpholin-4-yl)ethyl]-13,13-dioxo-10,11,12,13,14,15-hexahydro-2H-13lambda^6-pyrazolo[3′,4′:4,5][1,2,8]thiadiazacycloundecino[6,7,8-hi]indole-8-carboxylic acid-N-ethylethanamine Salt (Enantiomer 1)] yielded an IC50 (SNU-16) of 1.26e-07 M, an IC50 (DM-S114) of 3.66e-08 M and an IC50 (SK-MEL-2) of 4.64e-07 M. It also gave an IC50 (A-431) of 3.24e-07 M, an IC50 (SUDHL5 [1]) of 1.6e-05 M and an EC50 (SUDHL10 [2]) of 35 µM. For the same compound, the IC50 (MCL-1) was 150 nM, the IC50 (SUDHL5 [3]) was 1.4e-05 M and the IC50 (PA-1) was 3.2e-08 M. For the same compound, the IC50 (SUDHL10 [4]) was 1.6e-05 M, the IC50 (HMC-1-8) was greater than 3.3e-05 M and the EC50 (SUDHL5 [5]) was 11 µM.
